Consider 1 substance from US20060110385A1, “Means and methods for diagnosing and treating affective disorders” (Affectis Pharmaceuticals AG, priority 2003, published 2006).

In one assay the target is T1, P2X7R (Mus musculus, UniProt Q9Z1M0).
T1 construct: endogenous in cells; host or cells: HT-22 (immortalised mouse hippocampal cell line)
T1 sequence (Q9Z1M0 1-595): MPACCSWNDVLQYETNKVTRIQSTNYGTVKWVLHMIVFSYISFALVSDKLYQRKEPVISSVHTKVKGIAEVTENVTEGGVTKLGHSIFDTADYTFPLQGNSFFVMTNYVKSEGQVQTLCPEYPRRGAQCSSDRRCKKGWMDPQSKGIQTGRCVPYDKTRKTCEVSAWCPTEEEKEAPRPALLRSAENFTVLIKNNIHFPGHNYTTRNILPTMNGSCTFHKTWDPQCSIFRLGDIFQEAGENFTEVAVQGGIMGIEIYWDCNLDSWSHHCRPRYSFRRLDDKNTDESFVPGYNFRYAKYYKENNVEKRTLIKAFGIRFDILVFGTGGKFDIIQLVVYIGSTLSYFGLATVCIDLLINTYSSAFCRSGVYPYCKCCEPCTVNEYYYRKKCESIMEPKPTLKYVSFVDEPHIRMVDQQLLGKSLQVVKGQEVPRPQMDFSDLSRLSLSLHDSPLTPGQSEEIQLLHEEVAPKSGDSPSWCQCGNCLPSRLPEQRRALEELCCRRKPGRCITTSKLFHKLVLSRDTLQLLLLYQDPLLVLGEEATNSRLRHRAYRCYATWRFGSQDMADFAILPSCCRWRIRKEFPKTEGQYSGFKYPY
The assay can be described thus: Entry of ethidium bromide into HT-22 cells. It is filed as cell-based. The following applies: HT-22 cells, 60 minutes, 10^−4M ethidium bromide; 1 μM to 1 mM tested. From the text: Yet another method of measuring P2X7R activity involves the entry of ethidium bromide into P2X7R expressing cells. Activation of P2X7R by an agonist allows the entry of ethidium bromide which binds nuclear DNA and emits a fluorescence signal. Alternatively, the propidium dye YOPRO-1 can be substituted for ethidium bromide. An increase in fluorescence can be used as a measure of P2X7 receptor activation. Therefore, the assay can be used to test and quantify the effect of an agent or compound with agonist properties on P2X7R. In the present example, 10^3 HT-22 cells were seeded per well in a 96-well flat bottom microtitre plates and incubated at 37° C./5% CO2 in DMEM medium containing 10% FCS until the cells attached to the culture surface. […] The number of fluorescent cells which have integrated the ethidium bromide to the DNA can then be counted using a fluorescent microscope (Zeiss, Germany). […] Alternatively, ethidium bromide fluorescence can be measured using a Perkin-Elmer fluorescent plate reader (excitation 520 nm, emission 595 nm, slit widths: Ex 15 nm, Em 20 nm). From the readings obtained, a pIC50 figure can be calculated for each candidate agent or compound. […] The specificity of an agonist for P2X7R can be evaluated by pre-incubation of the cells for 60 minutes with 100 μM o-ATP before adding the agonist and ethidium bromide dye.

The subject of the next assay is DBA/201a mouse strain. Briefly: Porsolt's forced swim test after intrahippocampal BzATP. In kind it is in vivo. The following applies: 50 μM BzATP, 24 hours after injection. From the text: In the present example, the P2X7R agonist was directly injected into the hippocampus of mice. However, a P2X7R agonist agent or compound could also be delivered orally, subcutaneously, intravenously, intra-arterial, intranodal, intramedullary, intrathecal, intraventricular, intranasally, intrabronchial, transdermally, intrarectally, intraperitoneally, intramuscularly, intrapulmonary, vaginally, rectally, or intraocularly.
Four months old male mice were bilaterally implanted with guide cannulae (23 gauge, length 8 mm) by means of a stereotactic instrument (David Kopf Instruments). The coordinates, in relation to bregma, were −2.0 mm posterior, ±1.0 mm lateral, and −1.0 mm ventral. After surgery, the mice were allowed to recover for 10 to 12 days. […] Injections were performed using a 9 mm-30 gauge needle inserted into the guide cannulae and connected via tubing to a 10 μl Hamilton syringe.
The forced swim test is a standard test that measures primary stress-induced reductions in avoidance or escape, termed behavioural despair. The test is used to determine the effectiveness of antidepressants, test new pharmaceutical compounds and validate animal models of depression (Porsolt et al., Arch. Int. Pharmacodym. 229 (1977), 327-336; Porsolt, Rev. Neurosci. 11 (2000), 53-58; Rénéric et al., Behav. Brain Res. 136 (2002), 521-532; Page et al., Psychopharmacology 165 (2003), 194-201; Kelliher et al., Psychoneuroendocrinology 28 (2003), 332-347). The test consists of placing a mouse for a period of 5 minutes into a glass cylinder containing water. Under such circumstances, the mouse cannot touch the bottom of the cylinder and is thus forced to swim. Time, latency and frequency of struggling versus floating are scored as behavioural parameters. […] Increased struggling (i.e. active attempts to escape) indicates active coping behaviour that can be interpreted as an improvement of depression-like symptoms. For example, treatment with serotonergic antidepressants reduce the total time spent floating (Borsini, Neurosci. Biobehav. Rev. 19 (1995), 377-395; Redrobe and Bourin, Psychopharmacology 138 (1998), 198-206, and in parallel increases the time of active behaviour (i.e. swimming or struggling; Lucki et al., Psychopharmacology 155 (2001), 315-322).

Where [1] appears, read: 1 μl each side, not supported statistically.
The mark [2] stands for this setting: 1 μl each side, statistically significant.

As for “2′-3′-O-(4-Benzoylbenzoyl)adenosine 5′-triphosphate [BzATP]”, the “concentration that increased the number of fluorescent nuclei” value at P2X7R is recorded as “above 100 μM”. Besides, in the assay with DBA/201a mouse strain (1 μl each side of hippocampus, statistically significant), the time of struggling entry is given as “increase”. In addition, in the assay with DBA/201a mouse strain (setting [1]), the frequency of struggling result is “increase”, the latency of struggling result is “decrease” and the time of floating result was “decrease”. In addition, in the assay with DBA/201a mouse strain (setting [2]), the frequency of floating result is “decrease” and the latency of floating result is “increase”.
